The values that follow come from patent publication US20200347043A1, “MODULATORS OF THE INTEGRATED STRESS PATHWAY” (Calico Life Sciences LLC, priority 2019, published 2020).

One may read the EC50 as the concentration giving half of the maximal effect.

The assay relates to HEK293T cells carrying the ATF4 luciferase reporter. As to the kind of experiment: ATF4-Luc assay (in vitro model of VWMD). To be noted: Homo sapiens, HEK-293T, 1 μg/mL tunicamycin, 7 hours, One Glo luminescence. It counts as cell-based, human. In a few lines:
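Stable HEK293T line expressing firefly luciferase behind the human ATF4 5′-UTR, treated with 1 μg/mL tunicamycin plus compound for 7 hours. Luminescence read with One Glo; EC50 determined.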

Molecules are shown by their SMILES.

Take `O=C(N[C@H]1CC[C@H](C(=O)NCc2ccc(C(F)(F)F)cn2)CC1)[C@@H]1C[C@@H](O)c2cc(Cl)ccc2O1` [Compound 172, (2S,4R)-6-chloro-4-hydroxy-N-[trans-4-({[5-(trifluoromethyl)pyridin-2-yl]methyl}carbamoyl)cyclohexyl]-3,4-dihydro-2H-1-benzopyran-2-carboxamide]: the EC50 was in the range of 10 to 50 nM.
For `O=C(N[C@H]1CC[C@H](C(=O)N2CC(c3ccccc3)C2)CC1)[C@H]1C[C@@H](O)c2cc(Cl)ccc2O1` [Compound 182, (2R,4R)-6-chloro-4-hydroxy-N-[trans-4-(3-phenylazetidine-1-carbonyl)cyclohexyl]-3,4-dihydro-2H-1-benzopyran-2-carboxamide], the EC50 was over 2000 nM.
Consider `O=C(NC12CC(c3cc(-c4ccc(C(F)(F)F)nc4)on3)(C1)C2)[C@@H]1C[C@@H](O)c2cc(Cl)ccc2O1` [Compound 261, (2S,4R)-6-chloro-4-hydroxy-N-(3-{5-[6-(trifluoromethyl)pyridin-3-yl]-1,2-oxazol-3-yl}bicyclo[1.1.1]pentan-1-yl)-3,4-dihydro-2H-1-benzopyran-2-carboxamide], for which the EC50 lay within 50 to 250 nM.
Then `O=C(N[C@@H]1C[C@@H]2O[C@H]1C[C@H]2c1nnc([C@H]2C[C@@H](OC(F)(F)F)C2)o1)[C@H]1C[C@@H](O)c2cc(Cl)ccc2O1` (mixture of isomers) [Compound 187], with 50 to 250 nM.
For the molecule `O=C(NC12CC(c3nc(-c4ccc(Cl)c(F)c4)no3)(C1)C2)[C@H]1C[C@@H](O)c2cc(Cl)ccc2O1` (single isomer, unassigned) [Compound 202], the EC50 is under 10 nM.
For `O=C(CO[C@H]1C[C@@H](OC(F)(F)F)C1)NC12CCC(NC(=O)[C@H]3CC(=O)c4cc(Cl)ccc4O3)(CC1)C[C@@H]2O` [Compound 115, (2R)-6-chloro-N-[(3S)-3-hydroxy-4-(2-{[(1s,3R)-3-(trifluoromethoxy)cyclobutyl]oxy}acetamido)bicyclo[2.2.2]octan-1-yl]-4-oxo-3,4-dihydro-2H-1-benzopyran-2-carboxamide] the value was under 10 nM; for `O=C(CO[C@H]1C[C@@H](OC(F)(F)F)C1)NC12CCC(NC(=O)[C@H]3CC(=O)c4cc(F)c(F)cc4O3)(CC1)CC2` [Compound 189, (2R)-6,7-difluoro-4-oxo-N-[4-(2-{[cis-3-(trifluoromethoxy)cyclobutyl]oxy}acetamido)bicyclo[2.2.2]octan-1-yl]-3,4-dihydro-2H-1-benzopyran-2-carboxamide], 10 to 50 nM.
For `O=C(COc1ccc(Cl)c(F)c1)NC12CC(c3nnc([C@H]4C[C@@H](O)c5cc(Cl)ccc5O4)o3)(C1)C2` (relative stereo) [Compound 252, 2-(4-chloro-3-fluorophenoxy)-N-(3-{5-[(2R*,4R*)-6-chloro-4-hydroxy-3,4-dihydro-2H-1-benzopyran-2-yl]-1,3,4-oxadiazol-2-yl}bicyclo[1.1.1]pentan-1-yl)acetamide], the EC50 was under 10 nM.
With `O=C(COc1ccc(Cl)c(F)c1)NC12CC(c3nnc([C@H]4C[C@@H](O)c5cc(Cl)ccc5O4)o3)(C1)C2` (racemic) [Compound 166, 2-(4-chloro-3-fluorophenoxy)-N-(3-{5-[rac-(2R,4R)-6-chloro-4-hydroxy-3,4-dihydro-2H-1-benzopyran-2-yl]-1,3,4-oxadiazol-2-yl}bicyclo[1.1.1]pentan-1-yl)acetamide], the EC50 is under 10 nM.
As for `O=C(CO[C@H]1C[C@@H](OC(F)(F)F)C1)NC12CCC(NC(=O)[C@H]3CC(=O)c4cc(Cl)ccc4O3)(CC1)CC2` [Compound 192, (2R)-6-chloro-4-oxo-N-[4-(2-{[cis-3-(trifluoromethoxy)cyclobutyl]oxy}acetamido)bicyclo[2.2.2]octan-1-yl]-3,4-dihydro-2H-1-benzopyran-2-carboxamide], the EC50 fell in the range of 10 to 50 nM.
For the molecule `O=C(CO[C@H]1C[C@@H](OC(F)(F)F)C1)NC12CC(NC(=O)[C@@H]3C[C@@H](O)c4cc(Cl)ccc4O3)(C1)C2` [Compound 208, (2S,4R)-6-chloro-4-hydroxy-N-[3-(2-{[cis-3-(trifluoromethoxy)cyclobutyl]oxy}acetamido)bicyclo[1.1.1]pentan-1-yl]-3,4-dihydro-2H-1-benzopyran-2-carboxamide], the EC50 was under 10 nM.
As to `O=C(NC12CC(n3ccc(-c4ccc(Cl)c(F)c4)c3)(C1)C2)[C@H]1C[C@@H](O)c2cc(Cl)ccc2O1` [Compound 242, (2R,4R)-6-chloro-N-{3-[3-(4-chloro-3-fluorophenyl)-1H-pyrrol-1-yl]bicyclo[1.1.1]pentan-1-yl}-4-hydroxy-3,4-dihydro-2H-1-benzopyran-2-carboxamide], the EC50 is under 10 nM.
As for `O=C1C[C@H](C(=O)NC23CC(n4cnc(-c5ccc(F)c(F)c5)c4)(C2)C3)Oc2ccc(Cl)cc21` [Compound 176, (2R)-6-chloro-N-{3-[4-(3,4-difluorophenyl)-1H-imidazol-1-yl]bicyclo[1.1.1]pentan-1-yl}-4-oxo-3,4-dihydro-2H-1-benzopyran-2-carboxamide], the EC50 lay within 10 to 50 nM.
For the molecule `O=C(COc1ccc(Cl)c(F)c1)NC12CC(NC(=O)[C@H]3C[C@@H](OC(F)(F)F)C3)(C1)C2` [Compound 118, (1s,3s)-N-{3-[2-(4-chloro-3-fluorophenoxy)acetamido]bicyclo[1.1.1]pentan-1-yl}-3-(trifluoromethoxy)cyclobutane-1-carboxamide], the EC50 is 500 to 2000 nM.
As for `O=C(NC12CCC(NC(=O)[C@H]3C[C@@H](OC(F)(F)F)C3)(CC1)[C@@H](O)C2)[C@@H]1C[C@H](O)c2cc(Cl)ccc2O1` (racemic) [Compound 147, (2S,4S)-6-chloro-4-hydroxy-N-[(3S)-3-hydroxy-4-{[(1s,3R)-3-(trifluoromethoxy)cyclobutane-1-carbonyl]amino}bicyclo[2.2.2]octan-1-yl]-3,4-dihydro-2H-1-benzopyran-2-carboxamide and (2R,4R)-6-chloro-4-hydroxy-N-[(3S)-3-hydroxy-4-{[(1s,3R)-3-(trifluoromethoxy)cyclobutane-1-carbonyl]amino}bicyclo[2.2.2]octan-1-yl]-3,4-dihydro-2H-1-benzopyran-2-carboxamide], the EC50 lay in the range of 250 to 500 nM.
With `O=C(NC12CC(n3cnc(-c4ccc(F)c(F)c4)c3)(C1)C2)[C@H]1C[C@@H](O)c2cc(Cl)ccc2O1` (racemic) [Compound 149, rac-(2R,4R)-6-chloro-N-{3-[4-(3,4-difluorophenyl)-1H-imidazo-1-yl]bicyclo[1.1.1]pentan-1-yl}-4-hydroxy-3,4-dihydro-2H-1-benzopyran-2-carboxamide], the EC50 was under 10 nM.
For `O=C(NC12CC(C3=NOC([C@H]4C[C@@H](OC(F)(F)F)C4)C3)(C1)C2)[C@H]1C[C@@H](O)c2cc(Cl)ccc2O1` (stereo partly drawn) [Compound 232, (2R,4R)-6-chloro-4-hydroxy-N-{3-(5-[cis-3-(trifluoromethoxy)cyclobutyl]-4,5-dihydro-1,2-oxazol-3-yl}bicyclo[1.1.1]pentan-1-yl)-3,4-dihydro-2H-1-benzopyran-2-carboxamide], the EC50 was in the range of 50 to 250 nM.
In the case of `O=C(NC12CC(c3cc(-c4ccc(Cl)cc4)on3)(C1)C2)[C@H]1C[C@@H](O)c2cc(Cl)ccc2O1` [Compound 256, (2R,4R)-6-chloro-N-{3-[5-(4-chlorophenyl)-1,2-oxazol-3-yl]bicyclo[1.1.1]pentan-1-yl}-4-hydroxy-3,4-dihydro-2H-1-benzopyran-2-carboxamide], the EC50 was under 10 nM.
